Laboratory results as given in US20240148645A1, “NON-NANOPARTICULATE APPLICATION FORMS OF MACROLIDES” (Nucleus Medical GmbH, priority 2021, published 2024).
≈ marks a conversion by molar mass, not a printed value.

What was measured:
[1] = low solubility and high permeability; cited from earlier work
[2] = Saturation solubility of tacrolimus in different solvents; type: physicochemical; settings: for solubility: thermodynamic from solid, room temperature
Protocol: Tacrolimus was dissolved in an organic solvent. Particularly, the saturation solubility of tacrolimus in different organic solvents was tested. Crystalline active ingredient was added to a defined amount of solvent at room temperature while stirring until an insoluble sediment was formed. After filtration, the concentration of active ingredient was quantified by HPLC in the supernatant.

Solubility in tested organic solvents [2]: soluble in all tested organic solvents
solubility ([2]; organic solvent or mixture, Acetic Acid): 545 mg/mL (≈ 678 mM)
solubility ([2]; organic solvent or mixture, DMSO): 582 mg/mL (≈ 724 mM)
solubility ([2]; organic solvent or mixture, Ethanol): 389 mg/mL (≈ 484 mM)
solubility ([2]; organic solvent or mixture, iso-Propanol): 243 mg/mL (≈ 302 mM)
solubility ([2]; Water): 0.00076 mg/mL (≈ 0.000945 mM)
SMILES: C=CC[C@@H]1/C=C(\C)C[C@H](C)C[C@H](OC)[C@H]2O[C@@](O)(C(=O)C(=O)N3CCCC[C@H]3C(=O)O[C@H](/C(C)=C/[C@@H]3CC[C@@H](O)[C@H](OC)C3)[C@H](C)[C@@H](O)CC1=O)[C@H](C)C[C@@H]2OC [Tacrolimus]
BCS class [1]: BCS class II
